Data as given in ChEMBL document CHEMBL1201862, “PubChem BioAssay data set” (2004).
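Each compound was tested at five concentrations against cells in 96-well plates for 48 hours. GI50 is the concentration that inhibits growth by half.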 Calls of active or inactive are those of the source. Rule as the data show it: active = GI50 up to about 1.1 µM and inactive = higher.

Experiments:
Assay in all cases: NCI tumour cell line growth inhibition, 48 h
HOP-18 = system: HOP-18
LXFL 529 = system: LXFL 529
SNB-78 = system: SNB-78
KM-20L2 = system: KM-20L2
XF498 = system: XF498
DMS-273 = system: DMS-273
DMS-114 = system: DMS-114
RXF 631 = system: RXF 631
T47D = system: T47D

Compound	GI50 (HOP-18)	GI50 (LXFL 529)	GI50 (SNB-78)	GI50 (KM-20L2)	GI50 (XF498)	GI50 (DMS-273)	GI50 (DMS-114)	GI50 (RXF 631)	GI50 (T47D)
COC(=O)C1CCC(=O)C(Sc2ccccc2)C1 (centres undefined)	> 100 µM (inactive)	> 100 µM (inactive)	> 100 µM (inactive)	> 100 µM (inactive)	> 100 µM (inactive)	> 100 µM (inactive)	68.1 µM (inactive)	–	–
c1ccc(C2N3CCCCC3[C@@H]3c4[nH]c5ccccc5c4CCN23)cc1 (some centres undefined)	> 100 µM (inactive)	85.3 µM (inactive)	47.5 µM (inactive)	> 100 µM (inactive)	> 100 µM (inactive)	50.7 µM (inactive)	38.7 µM (inactive)	–	–
COc1ccc(C(=O)c2c3cc(OC)c(OC)c(OC)c3cc[n+]2C)cc1	20.6 µM (inactive)	24.9 µM (inactive)	38.5 µM (inactive)	28.3 µM (inactive)	15 µM (inactive)	–	23.7 µM (inactive)	37.4 µM (inactive)	–
Cn1c(=O)c2nc3sc4c(n3c2n(C)c1=O)C(=O)c1ccccc1C4=O	0.433 µM (active)	> 100 µM (inactive)	> 100 µM (inactive)	> 100 µM (inactive)	> 100 µM (inactive)	> 100 µM (inactive)	> 100 µM (inactive)	> 100 µM (inactive)	0.893 µM (active)
Clc1ccc(OC2CCO2)cc1Cl (centres undefined)	> 100 µM (inactive)	70.5 µM (inactive)	> 100 µM (inactive)	76.4 µM (inactive)	–	63.1 µM (inactive)	34.4 µM (inactive)	25.1 µM (inactive)	–
Cn1nc(-c2ccccc2)c(C(=O)/C=C/c2ccccc2)c(N2CCCC2)c1=O	16.4 µM (inactive)	11.9 µM (inactive)	–	14.5 µM (inactive)	18.8 µM (inactive)	14.7 µM (inactive)	11.4 µM (inactive)	29 µM (inactive)	–
COc1cc(=O)oc(/C=C/C=O)c1C	18 µM (inactive)	17.1 µM (inactive)	> 10 µM (inactive)	16.8 µM (inactive)	17 µM (inactive)	17.2 µM (inactive)	12.7 µM (inactive)	14.7 µM (inactive)	–
COc1ccc2c(c1)OC[C@@H]1c3cc(O)c(OCc4ccccc4)cc3O[C@H]21	> 100 µM (inactive)	18.7 µM (inactive)	19.7 µM (inactive)	33.9 µM (inactive)	26.2 µM (inactive)	40.6 µM (inactive)	19.5 µM (inactive)	45.2 µM (inactive)	–
Clc1cc(Cl)cc(C2SCc3nc4ccccc4n32)c1 (centres undefined)	28.4 µM (inactive)	14.4 µM (inactive)	6.03 µM (inactive)	–	–	7.28 µM (inactive)	13.6 µM (inactive)	14.2 µM (inactive)	–
O=C(CCCN1CCC(C(O)c2ccc(F)cc2)CC1)c1ccc(F)cc1 (centres undefined)	66.8 µM (inactive)	–	56.9 µM (inactive)	41.7 µM (inactive)	4.46 µM (inactive)	63.5 µM (inactive)	49.7 µM (inactive)	–	56.1 µM (inactive)
Cc1ccc(S(=O)(=O)OCCOCCOCCOCCOCCOS(=O)(=O)c2ccc(C)cc2)cc1	65.3 µM (inactive)	33.7 µM (inactive)	83.9 µM (inactive)	59.2 µM (inactive)	–	28.6 µM (inactive)	–	27.1 µM (inactive)	–
